Test results as given in US5508302A, “Phospholipase A2 inhibitors” (American Home Products Corporation, priority 1994, dated 1996).
“And” between values parts separate entries of the source, which are not always exact repeats. Equal entries are not always repeated. Structures can show the parent of a compound that is named as a salt.

Tests used:
[1] = target: T1, 5-lipoxygenase (Mus musculus, UniProt P48999); test: resident murine peritoneal macrophage test, LTC4 (5-lipoxygenase) by RIA; format: cell-based, mouse (female Swiss Webster)
T1 construct: Resident peritoneal macrophages were collected from female Swiss Webster mice; endogenous in cells; host or cells: resident peritoneal macrophages of female Swiss Webster mice
T1 sequence (P48999 1-674): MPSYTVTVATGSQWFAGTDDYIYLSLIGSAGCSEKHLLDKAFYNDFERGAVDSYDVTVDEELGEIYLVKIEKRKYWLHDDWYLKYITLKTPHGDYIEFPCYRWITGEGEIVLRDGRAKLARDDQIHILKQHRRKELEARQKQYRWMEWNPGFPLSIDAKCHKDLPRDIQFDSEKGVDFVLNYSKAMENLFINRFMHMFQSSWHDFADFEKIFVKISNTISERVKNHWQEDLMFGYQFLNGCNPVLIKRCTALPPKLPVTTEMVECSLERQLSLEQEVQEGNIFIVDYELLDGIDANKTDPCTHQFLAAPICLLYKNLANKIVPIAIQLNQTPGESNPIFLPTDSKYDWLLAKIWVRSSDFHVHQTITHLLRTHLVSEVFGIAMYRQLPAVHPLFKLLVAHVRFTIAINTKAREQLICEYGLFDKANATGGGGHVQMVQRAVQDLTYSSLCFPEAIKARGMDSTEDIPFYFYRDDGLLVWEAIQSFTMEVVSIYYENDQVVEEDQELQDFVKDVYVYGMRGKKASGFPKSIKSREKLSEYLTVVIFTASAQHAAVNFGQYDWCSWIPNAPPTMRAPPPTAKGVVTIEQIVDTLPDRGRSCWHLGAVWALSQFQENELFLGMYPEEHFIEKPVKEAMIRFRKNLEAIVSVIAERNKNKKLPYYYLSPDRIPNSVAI
Procedure: (§1) The ability of the compounds of the invention to act as inhibitors of the enzymes 5-lipoxygenase and cyclooxygenase was evaluated in the resident murine peritoneal macrophage standard pharmacological test procedure. This test procedure was carried out as follows.
Resident peritoneal macrophages were collected from female Swiss Webster mice (49 days old, 20-25 gms, Buckshire) by lavaging with 7-8 ml Hanks Balanced Salt Solution (HBSS) without Ca^++ and Mg^++ (GIBCO). The lavage fluid from several mice was pooled and centrifuged at 4° C. for 10 minutes at 400 xg. […] Two ml of the cell suspension (4×10^6 cells) were then plated on 35 mm culture dishes (Nunc).
(§2) Residual serum and cellular debris were removed from the monolayers by washing 3x with 2 ml HBSS containing Ca^++ and Mg^++. Macrophages were preincubated for 5 minutes with 1 ml serum-free M199 containing 10 μl dimethyl sulfoxide (DMSO) vehicle or test compound prior to cell activation with zymosan ([…]) or arachidonic acid (AA) (2 μM). After 2 hours, the supernatants are removed and either assayed for LTC4 and PGE2 by radioimmunoassay (RIA) directly or stored at -20° C. In all cases, results are expressed as ng metabolite/4×10^6 cells.
(§3) Calculations: The raw data were converted to ng metabolite/4-10^6 cells using a standard curve. Results were then expressed as percent inhibition of zymosan induced, leukotriene or prostaglandin synthesis (control) using the following equation: […]

[2] = test system: cyclooxygenase; test: resident murine peritoneal macrophage test, PGE2 (cyclooxygenase) by RIA; format: cell-based, mouse (female Swiss Webster); conditions: for IC50: 95% confidence limits given, mouse macrophages
Procedure: as §1
Resident peritoneal macrophages were collected from female Swiss Webster mice (49 days old, 20-25 gms, Buckshire) by lavaging with 7-8 ml Hanks Balanced Salt Solution (HBSS) without Ca^++ and Mg^++ (GIBCO). The lavage fluid from several mice was pooled and centrifuged at 4° C. for 10 minutes at 400 xg. The cell pellet was resuspended in Medium 199 (GIBCO) with HEPES buffer containing 100 μg/ml gentamicin. Two ml of the cell suspension (4×10^6 cells) were then plated on 35 mm culture dishes (Nunc).
A macrophage monolayer was established after a 1-1.5 hour incubation of the cells at 37° C. in an atmosphere of […] and 5% CO2. The monolayers were washed 2x with 2 ml HBDSS, containing Ca^++ and Mg^++ after which 2 ml Medium 199 supplemented with 10% freshly thawed heat-inactivated fetal bovine serum and 100 μg/ml gentamicin was added for an overnight incubation.
as §2, §3

[3] = test system: tetradecanoylphorbol acetate (TPA) induced ear edema; test: TPA induced ear edema in Webster mice (dermal inflammation); format: in vivo; conditions: for inhibition of TPA induced ear edema: 100 mg/kg, oral, 30 min after TPA, ears measured 4 hrs after TPA
Procedure: Representative compounds of this invention were evaluated in an in vivo standard pharmacological test procedure that measured the effect of the representative compounds on dermal inflammation, as measured by the prevention of tetradecanoylphorbol acetate (TPA) induced ear edema in Webster mice. This test procedure was carried out as follows.
Mice were placed into plastic boxes in groups of six. Eight groups of mice received TPA topically on the right ear. TPA was dissolved in acetone at a concentration of 100 ug/ml. TPA was applied to the right ear by the means of an automatic pipette. Volumes of 10 ul were applied to the inner and outer surfaces of the ear. Each mouse received 2 ug/ear TPA. The left ear (control) received acetone delivered in the same manner. The compounds to be evaluated were given orally 30 min alter treatment with TPA.
Measurements were taken with Oditest calipers, 0-10 mm with 0.01 graduations. The right and left ears were measured 4 hrs after TPA-induced inflammation.
The difference between right and left ear thickness was calculated and the significance was determined by a one way analysis of variance with Dunnet's comparisons to control (P=0.05). Drug effects are expressed as a percent change from control values according to the following formula. [formula]

| LTC4 % Inhibition ([1]; dose 0.1 μM) | LTC4 % Inhibition ([1]; dose 0.5 μM) | SMILES | PGE2 % Inhibition ([2]; dose 0.5 μM) | inhibition of TPA induced ear edema [3] [%] | further results |
| --- | --- | --- | --- | --- | --- |
| 2.1% | 38.7% | O=C(CCC1CCCCCCCCCCC1=O)C1=C(O)COC1=O (centres unmarked) [Example 1, 4-Hydroxy-3-[3-(2-oxocyclododecyl)-propionyl]-2-(5H)-furanone] | 5.8% | – | PGE2 % Inhibition ([2]; dose 0.1 μM): -17.9% |
| 37% and 66% | 77% | O=C(CCC1CCCCCCCCCCC1=NOCc1ccccc1)C1=C(O)CSC1=O (centres unmarked) [Example 4, 3-{3-[2-(Benzyloxyimino)cyclododecyl]-propionyl}-4-hydroxy-2-(5H)-thiophenone 2-amino-(2-hydroxymethyl)-1,3-propanediol salt] | 82% | 19 | LTC4 % Inhibition ([1]; dose 0.03 μM): 45%; LTC4 % Inhibition ([1]; dose 0.35 μM): 97%; PGE2 % Inhibition ([2]; dose 0.03 μM): 18%; PGE2 % Inhibition ([2]; dose 0.35 μM): 52% |
| – | – | CC(Cc1ccc(O)c(O)c1)C(C)Cc1ccc(O)c(O)c1 (centres unmarked) [NDGA, reference compound] | – | – | IC50 [2]: 2150 nM |
| 38% and 53% | 64% and 68% | O=C(CCC1CCCCCCCCCCC1=NOCc1ccccc1)C1=C(O)COC1=O (centres unmarked) [Example 3, 3-{3-[2-(Benzyloxyimino)cyclododecyl]-propionyl}-4-hydroxy-2-(5H)-furanone 2-amino-(2-hydroxymethyl)-1,3-propanediol salt] | 86% and 59% | 34 | LTC4 % Inhibition ([1]; dose 0.03 μM): 40%; PGE2 % Inhibition ([2]; dose 0.03 μM): 8% |
| -4.9% | 39.5% | O=C(CCC1CCCCCCCCCCC1=O)C1=C(O)CSC1=O (centres unmarked) [Example 2, 4-Hydroxy-3-[3-(2-Oxocyclododecyl)propionyl]-2-(5H)-thiophenone] | 3.3% | 40 | PGE2 % Inhibition ([2]; dose 0.1 μM): -35.0% |
| – | – | COc1ccc2c(c1)c(CC(=O)O)c(C)n2C(=O)c1ccc(Cl)cc1 [Indomethacin, reference compound] | – | – | activity in TPA induced ear edema ([3]; at 10 mg/g (so in the source)): inactive |
| – | – | CCCCCC#CCC#CCC#CCC#CCCCC(=O)O [ETYA, reference compound] | – | – | IC50 [2]: 1260 nM |
